In PubChem BioAssay AID1259407 (Chemical Carcinogenesis Research Information System (CCRIS), 2018):
Activity calls are given as the source filed them. The rule behind the calls is not given here.

Tested on: CCRIS mutagenicity, Ames/micronucleus/aberration tests
Experiment: CCRIS mutagenicity studies
[1] = Test System: AMES SALMONELLA TYPHIMURIUM, Strain/Indicator: TA98, Metabolic Activation: NONE, Method: PREINCUBATION
[2] = Test System: AMES SALMONELLA TYPHIMURIUM, Strain/Indicator: TA100, Metabolic Activation: NONE, Method: PREINCUBATION
[3] = Test System: AMES SALMONELLA TYPHIMURIUM, Strain/Indicator: TA1535, Metabolic Activation: NONE, Method: PREINCUBATION
[4] = Test System: AMES SALMONELLA TYPHIMURIUM, Strain/Indicator: TA1537, Metabolic Activation: NONE, Method: PREINCUBATION
[5] = Test System: AMES SALMONELLA TYPHIMURIUM, Strain/Indicator: TA100, Metabolic Activation: NONE, Method: STANDARD PLATE
[6] = Test System: AMES SALMONELLA TYPHIMURIUM, Strain/Indicator: TA1538, Metabolic Activation: NONE, Method: PREINCUBATION

CCCCC(CC)COC(=O)CCCCCCCCC(=O)OCC(CC)CCCC (configuration not stated)
mutagenic call (Test System: AMES SALMONELLA TYPHIMURIUM, Strain/Indicator: TA98, Metabolic Activation: HAMSTER, LIVER, S-9, AROCLOR 1254 (10%), Method: PREINCUBATION): inactive; negative | mutagenic call [1]: inactive; negative | mutagenic call (Test System: AMES SALMONELLA TYPHIMURIUM, Strain/Indicator: TA98, Metabolic Activation: RAT, LIVER, S-9, AROCLOR 1254 (10%), Method: PREINCUBATION): inactive; negative | mutagenic call (Test System: AMES SALMONELLA TYPHIMURIUM, Strain/Indicator: TA100, Metabolic Activation: HAMSTER, LIVER, S-9, AROCLOR 1254 (10%), Method: PREINCUBATION): inactive; negative | mutagenic call [2]: inactive; negative | mutagenic call (Test System: AMES SALMONELLA TYPHIMURIUM, Strain/Indicator: TA100, Metabolic Activation: RAT, LIVER, S-9, AROCLOR 1254 (10%), Method: PREINCUBATION): inactive; negative | mutagenic call (Test System: AMES SALMONELLA TYPHIMURIUM, Strain/Indicator: TA1535, Metabolic Activation: HAMSTER, LIVER, S-9, AROCLOR 1254 (10%), Method: PREINCUBATION): inactive; negative | mutagenic call [3]: inactive; negative | mutagenic call (Test System: AMES SALMONELLA TYPHIMURIUM, Strain/Indicator: TA1535, Metabolic Activation: RAT, LIVER, S-9, AROCLOR 1254 (10%), Method: PREINCUBATION): inactive; negative | mutagenic call (Test System: AMES SALMONELLA TYPHIMURIUM, Strain/Indicator: TA1537, Metabolic Activation: HAMSTER, LIVER, S-9, AROCLOR 1254 (10%), Method: PREINCUBATION): inactive; negative | mutagenic call [4]: inactive; negative | mutagenic call (Test System: AMES SALMONELLA TYPHIMURIUM, Strain/Indicator: TA1537, Metabolic Activation: RAT, LIVER, S-9, AROCLOR 1254 (10%), Method: PREINCUBATION): inactive; negative | mutagenic call (Test System: Ames Salmonella typhimurium, Strain/Indicator: TA98, Metabolic Activation: None, Method: Preincubation): inactive; negative | mutagenic call (Test System: Ames Salmonella typhimurium, Strain/Indicator: TA98, Metabolic Activation: Rat, Liver, S9, Phenobarbital and 5,6-benzoflavone, Method: Preincubation): inactive; negative | mutagenic call (Test System: Ames Salmonella typhimurium, Strain/Indicator: TA100, Metabolic Activation: None, Method: Preincubation): inactive; negative | mutagenic call (Test System: Ames Salmonella typhimurium, Strain/Indicator: TA100, Metabolic Activation: Rat, Liver, S9, Phenobarbital and 5,6-benzoflavone, Method: Preincubation): inactive; negative | mutagenic call (Test System: Ames Salmonella typhimurium, Strain/Indicator: TA1535, Metabolic Activation: None, Method: Preincubation): inactive; negative | mutagenic call (Test System: Ames Salmonella typhimurium, Strain/Indicator: TA1535, Metabolic Activation: Rat, Liver, S9, Phenobarbital and 5,6-benzoflavone, Method: Preincubation): inactive; negative | mutagenic call (Test System: Ames Salmonella typhimurium, Strain/Indicator: TA1537, Metabolic Activation: None, Method: Preincubation): inactive; negative | mutagenic call (Test System: Ames Salmonella typhimurium, Strain/Indicator: TA1537, Metabolic Activation: Rat, Liver, S9, Phenobarbital and 5,6-benzoflavone, Method: Preincubation): inactive; negative | mutagenic call (Test System: E. coli, Strain/Indicator: WP2uvrA/pKM101, Metabolic Activation: None, Method: Preincubation): inactive; negative | mutagenic call (Test System: E. coli, Strain/Indicator: WP2uvrA/pKM101, Metabolic Activation: Rat, Liver, S9, Phenobarbital and 5,6-benzoflavone, Method: Preincubation): inactive; negative

O=[N+]([O-])c1cc2[nH]c3ccc4ccccc4c3c2c2cccc(O)c12
mutagenic call (Test System: AMES SALMONELLA TYPHIMURIUM, Strain/Indicator: TA98, Metabolic Activation: NONE, Method: STANDARD PLATE): active; positive | mutagenic call (Test System: AMES SALMONELLA TYPHIMURIUM, Strain/Indicator: TA98, Metabolic Activation: RAT, LIVER, S-9, 3-METHYLCHOLANTHRENE, Method: STANDARD PLATE): active; positive | mutagenic call [5]: active; positive | mutagenic call (Test System: AMES SALMONELLA TYPHIMURIUM, Strain/Indicator: TA100, Metabolic Activation: RAT, LIVER, S-9, 3-METHYLCHOLANTHRENE, Method: STANDARD PLATE): active; positive

CCNC(=O)N(C=O)CCN(C)C
mutagenic call (Test System: AMES SALMONELLA TYPHIMURIUM, Strain/Indicator: TA1535, Metabolic Activation: NONE, Method: STANDARD PLATE): active; positive

Cl.Cl.[Cr].c1ccc(-c2ccccn2)nc1.c1ccc(-c2ccccn2)nc1
mutagenic call [5]: active; positive

Nc1c(O)cc(Cc2cc(Cl)c(N)c(OS(=O)(=O)O)c2)cc1Cl
mutagenic call [6]: inactive; negative | mutagenic call (Test System: AMES SALMONELLA TYPHIMURIUM, Strain/Indicator: TA1538, Metabolic Activation: NONE, Method: STANDARD PLATE): inactive; negative

CC(=O)Nc1ccc(S(=O)(=O)Nc2ccccn2)cc1
mutagenic call [1]: inactive; negative | mutagenic call (Test System: AMES SALMONELLA TYPHIMURIUM, Strain/Indicator: TA98, Metabolic Activation: RAT, LIVER, S-9, AROCLOR 1254, Method: PREINCUBATION): inactive; negative | mutagenic call [2]: inactive; negative | mutagenic call (Test System: AMES SALMONELLA TYPHIMURIUM, Strain/Indicator: TA100, Metabolic Activation: RAT, LIVER, S-9, AROCLOR 1254, Method: PREINCUBATION): inactive; negative

COC1C2C(=O)C34C(=O)c5c(O)cc(C)cc5C(=O)C35C3C(=O)C46C(=O)c4c(O)cc(C)cc4C(=O)C26C(C3OC)C15 (configuration not stated)
mutagenic call (Test System: AMES SALMONELLA TYPHIMURIUM, Strain/Indicator: TA98, Metabolic Activation: RAT, LIVER, S-9, AROCLOR 1254, Method: STANDARD PLATE): inactive; negative | mutagenic call (Test System: AMES SALMONELLA TYPHIMURIUM, Strain/Indicator: TA100, Metabolic Activation: RAT, LIVER, S-9, AROCLOR 1254, Method: STANDARD PLATE): inactive; negative | mutagenic call (Test System: AMES SALMONELLA TYPHIMURIUM, Strain/Indicator: TA1537, Metabolic Activation: RAT, LIVER, S-9, AROCLOR 1254, Method: STANDARD PLATE): inactive; negative

Nc1c2ccccc2nc2ccc([N+](=O)[O-])cc12
mutagenic call (Test System: AMES SALMONELLA TYPHIMURIUM, Strain/Indicator: TA1537, Metabolic Activation: NONE): active; positive | mutagenic call [4]: active; positive

CCCCCCCOc1ccccc1NC(=O)OCCN1CCCCC1
mutagenic call (Test System: AMES SALMONELLA TYPHIMURIUM, Strain/Indicator: TA98, Metabolic Activation: MOUSE, LIVER, S-9, AROCLOR 1254, Method: PREINCUBATION): inactive; negative | mutagenic call [1]: inactive; negative | mutagenic call (Test System: AMES SALMONELLA TYPHIMURIUM, Strain/Indicator: TA100, Metabolic Activation: MOUSE, LIVER, S-9, AROCLOR 1254, Method: PREINCUBATION): inactive; negative | mutagenic call [2]: inactive; negative | mutagenic call (Test System: AMES SALMONELLA TYPHIMURIUM, Strain/Indicator: TA1535, Metabolic Activation: MOUSE, LIVER, S-9, AROCLOR 1254, Method: PREINCUBATION): inactive; negative | mutagenic call [3]: inactive; negative | mutagenic call (Test System: AMES SALMONELLA TYPHIMURIUM, Strain/Indicator: TA1538, Metabolic Activation: MOUSE, LIVER, S-9, AROCLOR 1254, Method: PREINCUBATION): inactive; negative | mutagenic call [6]: inactive; negative | mutagenic call (Test System: AMES SALMONELLA TYPHIMURIUM, Strain/Indicator: TA1978, Metabolic Activation: MOUSE, LIVER, S-9, AROCLOR 1254, Method: PREINCUBATION): inactive; negative | mutagenic call (Test System: AMES SALMONELLA TYPHIMURIUM, Strain/Indicator: TA1978, Metabolic Activation: NONE, Method: PREINCUBATION): inactive; negative | mutagenic call (Test System: E. COLI, Strain/Indicator: CM611 UVRA/LEXA, Metabolic Activation: MOUSE, LIVER, S-9, AROCLOR 1254, Method: PREINCUBATION): inactive; negative | mutagenic call (Test System: E. COLI, Strain/Indicator: CM611 UVRA/LEXA, Metabolic Activation: NONE, Method: PREINCUBATION): inactive; negative | mutagenic call (Test System: E. COLI, Strain/Indicator: WP2, Metabolic Activation: MOUSE, LIVER, S-9, AROCLOR 1254, Method: PREINCUBATION): inactive; negative | mutagenic call (Test System: E. COLI, Strain/Indicator: WP2, Metabolic Activation: NONE, Method: PREINCUBATION): inactive; negative | mutagenic call (Test System: E. COLI, Strain/Indicator: WP2 UVRA, Metabolic Activation: MOUSE, LIVER, S-9, AROCLOR 1254, Method: PREINCUBATION): inactive; negative | mutagenic call (Test System: E. COLI, Strain/Indicator: WP2 UVRA, Metabolic Activation: NONE, Method: PREINCUBATION): inactive; negative | mutagenic call (Test System: E. COLI, Strain/Indicator: WP67 UVRA/POLA, Metabolic Activation: MOUSE, LIVER, S-9, AROCLOR 1254, Method: PREINCUBATION): inactive; negative | mutagenic call (Test System: E. COLI, Strain/Indicator: WP67 UVRA/POLA, Metabolic Activation: NONE, Method: PREINCUBATION): inactive; negative
